The text below walks through data of US8399475B2, “Crystalline and amorphous forms of naltrexone hydrochloride” (Mallinckrodt LLC, priority 2007, dated 2013).

A short description of the series: Solid-state stability / form conversion under wet or high humidity conditions.

Molecules are shown by their SMILES.

In the case of `Cl.O=C1CC[C@@]2(O)[C@H]3Cc4ccc(O)c5c4[C@@]2(CCN3CC2CC2)[C@H]1O5` [Form I, naltrexone hydrochloride], the “humidity at which the form converts to Form II” value (exposure of solid to humidity) is reported as “above 70% RH”. With `Cl.O=C1CC[C@@]2(O)[C@H]3Cc4ccc(O)c5c4[C@@]2(CCN3CC2CC2)[C@H]1O5` [Form II, naltrexone hydrochloride], the “stability under wet and/or high humidity environments” value (compared with non-hydrated forms) is listed as “more stable”.
